As a reminder, the half-life is the time in which the quantity being followed falls by half.

In series [1] the test system is OVCAR-3 cells. The series is described as follows: Inhibition of proliferation of OVCAR-3 cells (CellTiter-Glo). Type of series: cell-based. The note with it: Homo sapiens, OVCAR-3 cells (TP53 R248Q mutation), 72 hours, read-out: IC50 inhibiting the proliferation of OVCAR-3 cells. As to the method:
The following method was used to determine the effect of the compound of the present invention on the proliferation of OVCAR-3 cells. OVCAR-3 cells (comprising TP53 R248Q mutation) were purchased from the Cell Resource Center of Shanghai Institute of Life Sciences, Chinese Academy of Sciences, and cultured in a RPMI 1640 medium comprising10% fetal bovine serum, 100 U penicillin and 100 μg/mL streptomycin. Cell viability was determined by Cell Titer-Glo® Luminescent Cell Viability Assay Kit (Promega, article No. G7573).
(§1) An experimental method was carried out according to steps provided in the kit manual, with details as follows: firstly, a test compound was dissolved in DMSO to prepare a 10 mM storage solution, and then diluted with a culture medium to prepare a test sample. A final concentration of the compound ranged from 1000 nM to 0.015 nM. Cells in a logarithmic growth phase were inoculated into a 96-mesh cell culture plate at a density of 1000 cells per mesh, cultured overnight in a 5% CO2 incubator at 37° C., and then cultured for 72 hours after adding the test compound. After completion of cultivation, 50 uL CellTiter-Glo detection solution was added into each mesh, shook for 5 minutes, and stood for 10 minutes, and then a luminous value of each mesh of the sample was read by a microplate reader using Luminescence mode. Compared with the numerical value of a control group (0.3% DMSO), a percentage inhibition rate of the compound at each concentration point was calculated, and then an IC50 value of the compound inhibiting cell proliferation was obtained by a nonlinear regression analysis with a logarithmic-inhibition rate of the compound concentration in a GraphPad Prism 5 software, as shown in Table 1.
A general note: In ATP-based viability assays light output follows the ATP content of the culture.

For series [2], the system named is HT-29 cells. Briefly: Inhibition of proliferation of HT-29 cells (CellTiter-Glo). Type of series: cell-based. The note with it: Homo sapiens, HT-29 cells (TP53 R273H mutation), 120 hours, read-out: IC50 inhibiting the proliferation of HT-29 cells. As to the method: The following method was used to determine the effect of the compound of the present invention on the proliferation of HT-29 cells. HT-29 cells (comprising TP53 R273H mutation) were purchased from the Cell Resource Center of Shanghai Institute of Life Sciences, Chinese Academy of Sciences, and cultured in a McCOY's 5A medium comprising 10% fetal bovine serum, 100 U penicillin and 100 μg/mL streptomycin. Cell viability was determined by Cell Titer-Glo® Luminescent Cell Viability Assay Kit (Promega, article No. G7573).
as §1, with “per mesh, and cultured overnight” for “per mesh, cultured overnight”, “cultured for 120 hours after” for “cultured for 72 hours after”, “Compared with a numerical value” for “Compared with the numerical value”, “in Table 2.” for “in Table 1.”

Series [3] can be described thus: Pharmacokinetic test in mice after gavage administration. It counts as in vivo. The note with it: ICR mice, male, Oral (10 mg/mL), plasma. As to the method: Control Compound AMG650, Compound 9;
ICR mice, male, 27.3-30.3 g, purchased from Charles River Experimental Animal Technology Co., Ltd.
A proper amount of pharmaceutical compound was weighed, a proper amount of DMA, CrEL and 5% GS were added in turn, then the system was mixed evenly by ultrasonic vortex to prepare a 1 mg/mL drug administration preparation, wherein DMA, CrEL and 5% GS=10:10:80 (v:v:v).
ICR mice, each compound injection group (9 mice in each group) to be determined, were fasted overnight, fed was given 4 hours after gavage administration (PO, the dosage of the compound was 10 mg/kg, the dosage volume was 10 mL/kg).
About 0.1 mL blood was collected from orbits 0.25 hours, 0.5 hours, 1 hour, 2 hours, 4 hours, 8 hours, 10 hours and 24 hours […] after drug administration, and a whole blood sample was placed in an anticoagulant tube including EDTA-K2. Blood samples were collected and then placed on ice, and plasma was separated by centrifugation (centrifugation condition: 1500 g, 10 minutes). The collected plasma was stored at −40° C. to −20° C. before analysis.
LC-MS/MS was used to determine the content of compounds to be tested in plasma of mice after gavage administration.

Series [4] concerns the target T1, recombinant human KIF18A enzyme (Homo sapiens, UniProt Q8NI77).
T1 construct: purchased Genscript
The series is described as follows: Inhibition of KIF18A enzyme activity (ADP-Glo). It counts as biochemical. The note with it: recombinant human KIF18A protein 100 nM, ATP 60 uM, read-out: IC50 inhibiting KIF18A enzyme activity. As to the method: The following method was used to determine a degree of inhibition of the compound of the present invention on the activity of recombinant human KIF18A enzyme in vitro. The method used ADP-Glo™ Kinase Assay kit (article No. V9102) of Promega Company. For detailed experimental operation, please refer to the kit instructions.
Firstly, the compound and recombinant human KIF18A protein (final concentration of 100 nM, entrusted to Genscript for expression) were added into the mesh, and incubated at room temperature for 20 minutes. Then, ATP solution (component V915A from ADP-Glo™ Kinase Assay kit, final concentration of 60 uM) was added to the reaction solution, and the mixture was incubated at room temperature for 20 minutes. Subsequently, 5 μL ADP-Glo Reagent was added to the reaction system and the obtained system was incubated at troom temperature for 50 minutes. After that, 10 μL of Kinase Detection Reagent was added to the reaction system and the obtained system was incubated at room temperature for 30 minutes. After the completion of incubation, a chemiluminescence intensity value of each mesh was measured by a microplate reader using Luminescence mode.

T1 sequence (Q8NI77 whole entry): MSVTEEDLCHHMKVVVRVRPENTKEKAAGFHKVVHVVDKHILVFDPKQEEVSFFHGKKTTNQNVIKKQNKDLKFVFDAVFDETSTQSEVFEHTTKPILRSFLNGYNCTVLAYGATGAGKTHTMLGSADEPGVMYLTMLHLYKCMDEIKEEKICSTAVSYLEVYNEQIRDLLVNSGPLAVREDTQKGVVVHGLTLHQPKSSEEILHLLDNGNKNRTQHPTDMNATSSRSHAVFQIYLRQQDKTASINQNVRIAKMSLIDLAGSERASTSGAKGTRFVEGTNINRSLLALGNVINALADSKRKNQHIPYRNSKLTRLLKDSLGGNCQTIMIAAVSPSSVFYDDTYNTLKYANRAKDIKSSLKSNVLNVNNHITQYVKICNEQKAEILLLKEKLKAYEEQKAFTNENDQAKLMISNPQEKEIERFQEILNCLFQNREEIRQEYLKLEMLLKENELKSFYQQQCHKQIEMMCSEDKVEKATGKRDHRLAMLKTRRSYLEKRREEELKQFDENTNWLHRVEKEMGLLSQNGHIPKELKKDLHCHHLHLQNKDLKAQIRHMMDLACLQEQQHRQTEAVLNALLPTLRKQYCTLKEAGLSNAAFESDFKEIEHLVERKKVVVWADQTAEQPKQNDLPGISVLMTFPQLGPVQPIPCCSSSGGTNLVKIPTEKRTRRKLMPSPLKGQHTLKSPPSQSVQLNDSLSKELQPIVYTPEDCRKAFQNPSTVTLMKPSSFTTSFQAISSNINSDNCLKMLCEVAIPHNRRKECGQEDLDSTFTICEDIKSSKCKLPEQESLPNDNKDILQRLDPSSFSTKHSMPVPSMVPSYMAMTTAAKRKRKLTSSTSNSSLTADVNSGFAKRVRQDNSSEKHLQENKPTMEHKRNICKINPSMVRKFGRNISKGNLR
T1 sequence (P68363 whole entry partner): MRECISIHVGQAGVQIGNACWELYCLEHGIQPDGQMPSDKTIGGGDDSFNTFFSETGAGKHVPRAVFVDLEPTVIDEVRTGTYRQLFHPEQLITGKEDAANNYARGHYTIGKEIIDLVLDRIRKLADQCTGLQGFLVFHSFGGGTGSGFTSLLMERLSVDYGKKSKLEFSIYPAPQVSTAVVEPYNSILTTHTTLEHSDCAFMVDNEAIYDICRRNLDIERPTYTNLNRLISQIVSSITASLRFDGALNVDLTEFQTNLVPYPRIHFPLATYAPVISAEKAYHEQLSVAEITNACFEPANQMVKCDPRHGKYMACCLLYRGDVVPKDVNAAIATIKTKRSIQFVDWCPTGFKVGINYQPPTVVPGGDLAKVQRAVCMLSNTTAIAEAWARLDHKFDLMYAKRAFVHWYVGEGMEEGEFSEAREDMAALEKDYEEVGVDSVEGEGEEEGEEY
T1 sequence (P07437 whole entry partner): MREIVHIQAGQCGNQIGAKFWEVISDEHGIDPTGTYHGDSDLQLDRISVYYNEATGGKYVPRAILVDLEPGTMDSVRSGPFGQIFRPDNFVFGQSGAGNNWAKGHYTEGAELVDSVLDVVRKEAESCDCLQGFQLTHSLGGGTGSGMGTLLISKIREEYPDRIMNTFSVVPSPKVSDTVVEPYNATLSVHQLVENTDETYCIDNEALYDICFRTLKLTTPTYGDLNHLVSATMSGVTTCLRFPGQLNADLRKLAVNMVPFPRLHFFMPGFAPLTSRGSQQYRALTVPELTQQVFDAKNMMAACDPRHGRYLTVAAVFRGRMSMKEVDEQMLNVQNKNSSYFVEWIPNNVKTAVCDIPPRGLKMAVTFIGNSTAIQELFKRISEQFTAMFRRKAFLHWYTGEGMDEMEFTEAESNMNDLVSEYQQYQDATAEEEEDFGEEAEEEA

As for `CCS(=O)(=O)Nc1ccc(C(=O)Nc2ccc(OC)c(N3CCC(F)(F)CC3)c2)c(N2CCC3(CC2)CC3)c1` [Example 9, N-(3-(4,4-difluoropiperidin-1-yl)-4-methoxyphenyl)-4-(ethylsulfonamido)-2-(6-azaspiro[2.5]octan-6-yl) benzamide], the IC50 was determined as 1.5 nM in series [1] and 3.3 nM in series [2]. Moreover, the Cmax in series [3] (mouse, 10 mg/kg, read-out: Blood concentration Cmax) is 5270 ng/mL. The AUC(0-inf) in series [3] (mouse, 10 mg/kg, read-out: Curve area AUC0-∞) stood at 52200 ng·h/mL. In series [3] (mouse, 10 mg/kg, read-out: Half-life period T½ (converted)), the half-life was 5.9 h.
Consider `CCS(=O)(=O)Nc1ccc(C(=O)Nc2ccc(OC(F)(F)F)c(N3CCC(F)(F)CC3)c2)c(N2CCC3(CC2)CC3)c1` [Example 13, N-(3-(4,4-difluoropiperidin-1-yl)-4-(trifluoromethoxy)phenyl)-4-(ethylsulfonamido)-2-(6-azaspiro[2.5]octan-6-yl)benzamide], for which the IC50 in series [4] was 137 nM.
In the case of `CCS(=O)(=O)Nc1ccc(C(=O)Nc2ccc(OC)c(N3CCOCC3)c2)c(N2CCC3(CC2)CC3)c1` [Example 10, 4-(ethylsulfonamido)-N-(4-methoxy-3-morpholinophenyl)-2-(6-azaspiro[2.5]octan-6-yl)benzamide], the IC50 in series [1] turned out to be 7.5 nM; in series [2] it was 42.8 nM.
`CCS(=O)(=O)Nc1ccc(C(=O)Nc2ccc(C#N)c(N3CCC(F)(F)CC3)c2)c(N2CCC3(CC2)CC3)c1` [Example 8, N-(4-cyano-3-(4,4-difluoropiperidin-1-yl)phenyl)-4-(ethylsulfonamido)-2-(6-azaspiro[2.5]octan-6-yl) benzamide]: the IC50 stood at 17.4 nM in series [1], 14.5 nM in series [2] and 97.8 nM in series [4].
Turning to `CCS(=O)(=O)Nc1ccc(C(=O)Nc2ccc(OC)c(CN3CC(F)(F)C3)c2)c(N2CCC3(CC2)CC3)c1` [Example 11, N-(3-((3,3-difluoroazetidin-1-yl)methyl)-4-methoxyphenyl)-4-(ethylsulfonamido)-2-(6-azaspiro[2.5]octan-6-yl)benzamide], the IC50 in series [1] came out at 14.7 nM; in series [2], 3.9 nM; in series [4], 145 nM.
As to `COc1ccc(NC(=O)c2ccc(NS(=O)(=O)CCO)cc2N2CCC3(CC2)CC3)cc1N1CCC(F)(F)CC1` [Example 6, N-(3-(4,4-difluoropiperidin-1-yl)-4-methoxyphenyl)-4-((2-hydroxyethyl)sulfonamido)-2-(6-azaspiro[2.5]octan-6-yl)benzamide], the results for the IC50 in series [1] and in series [2] were 1.5 nM and 3.2 nM, respectively.
Turning to `CCS(=O)(=O)Nc1ccc(C(=O)Nc2ccc(OC)c(-c3ccc(F)cn3)c2)c(N2CCC3(CC2)CC3)c1` [Example 16, 4-(ethylsulfonamido)-N-(3-(5-fluoropyridine-2-yl)-4-methoxyphenyl)-2-(6-azaspiro [2.5]octan-6-yl) benzamide], the IC50 in series [1] worked out at 4.5 nM; in series [2] it was 27.1 nM; in series [4] it was 185 nM.
In the case of `N#Cc1ccc(NC(=O)c2ccc(NS(=O)(=O)CCO)cc2N2CCC3(CC2)CC3)cc1N1CCC(F)(F)CC1` [Example 7, N-(4-cyano-3-(4,4-difluoropiperidin-1-yl)phenyl)-4-((2-hydroxyethyl)sulfonamido)-2-(6-azaspiro[2.5]octan-6-yl)benzamide], the IC50 in series [1] worked out at 1.9 nM; in series [2] it was 52.4 nM; in series [4] it was 177 nM.
For the molecule `Cc1cc(NC(=O)c2ccc(NS(=O)(=O)CCO)cc2N2CCC3(CC2)CC3)nc(N2CCC(F)(F)CC2)n1` [AMG 650, reference compound], in series [3], the “Blood concentration Cmax” value is given as 3050 ng/mL, the “Curve area AUC0-∞” value amounted to 52500 ng·h/mL and the “Half-life period T½” value is on record as 9.64 h.

The values are drawn from patent publication US20260256762A1, “Aromatic Amide Derivative, And Preparation Method Therefor And Medical Use Thereof” (ZHEJIANG HISUN PHARMACEUTICAL CO., LTD., priority 2023, published 2026).
